# How the values were obtained:
# [1] = tested on: HIV-1; experiment: Structural studies: electron microscopy of virus particle production by infected cells; type: cell-based
# Description: Virus infected cells were washed and resuspended in fresh media in the presence or absence of test compounds. After a 48 hour culture period the cultures were pelleted and fixed in 1% glutaraldehyde, 0.1 M Cacodylate-HC1, pH 7.3 followed by OsO₄, and embedded in spur resin for examination of these sections by electron microscopy.
# To further address this point, we analyzed virus particle production in the presence of specifically substituted cyclodextrins by electron microscopic examination. Virus infected cells were washed and resuspended in fresh media in the presence or absence of test compounds. After a 48 hour culture period, the cultures were pelleted and fixed in 1% glutaraldehyde, 0.1 M Cacodylate-HC1, pH 7.3 followed by OsO₄ and embedded in spur resin for examination of thin sections.
# [2] = tested on: HTLV III WMJ; experiment: Fusion inhibition (syncytia) assay, Sup-T1 cells with WMJ infected H9 cells; type: cell-based, HIV-1; parameters: key to Degree of Syncytia Formation: 4=Full; 0=None; S=Small; M=Medium; L=Large; settings: for Degree of Syncytia Formation: degree and size of syncytia
# Description: (§1) The fusion inhibition (syncytia) assay was performed according to published procedures (Dalgleish et al., Nature 312:763, (1984) and Sodroski et al., Nature 322: 470, (1986)). Sup-T1 cells are favored target cells for their rapid degree of cell fusion when co-cultured with HIV-1 producing cell lines. Cell culture is performed according to the method of Dalgleish et al. (Nature 312:763, (1984)). Sup-T1 cells are plated in 96 well plates (10⁵ cells/well in RPMI 1640 + 10% FCS) and incubated with or without dilutions of beta-cyclodextrin tetradecasulfate (β-CD-TDS or β-CD-14S) at 37°C. HTLV-III B (HIV-1) or WMJ infected H9 cells are then added 5x10⁴/well and the number of multinucleated giant cells per 16 X field counted with a Zeiss inverted field phase contrast microscope after 18 hours. Syncytia are easily identified and inhibition of syncytia by different dilutions of β-CD-TDS can be compared with to β-CD-TDS free preparations. It will be apparent to those skilled in the art, that the formation of syncytia between cells susceptible of infection by HIV-1 and cells expressing HIV-1 envelope glycoproteins represents the same molecular phenomena involved in infection by HIV-1, but is far less hazardous and may be employed to study the mechanisms of infection and the effects of modulating factors on HIB-1 intracellular infection mechanisms, without fear of exposure to the virus itself.
# (§2) For screening of different dilutions, 10-fold dilutions of a 150 micromolar solution of β-CD-TDS were prepared and directly added to syncytia assays as described above.
# (§3) For the assay of HIV-1 fusion, Supt T1 cells were used as target cells. They fuse rapidly when cocultured with HIV-1 (H9/IIIb) producing cell lines. For the assay of HIV-2 mediated cell fusion, H9 cells were used as target cells. They fuse rapidly when cocultured with HIV-2 (CEMROD-2) producing cell lines. HIV infected cells were plated in 96 well plates (10⁴ cells/well in RPMI 1640 + 10% FCS) and incubated with or without dilution of compounds for 30 minutes at 37°C. Target cells are then added 5 x 10⁵/well and the number of syncytia are qualitatively determined after the incubation periods described in the text.
# (§4) In a series of preliminary experiments, a syncytia assay induced by HIV-1 fusion of Sup-T1 cells was performed as described in Section 6.1.1, supra.
# [3] = Water solubility at 0°C; type: physicochemical
# Description: The cyclic oligosaccharide derivatives useful in the present invention are highly hydrophilic and therefore very water soluble. A highly hydrophilic character probably is important to allow interaction with cellular surfaces. The hydrophilic activity is likely roughly indicated by the affinity to water, as measured by water solubility. It is important to measure the same at 0°C since at higher temperatures the most suitable derivative have solubilities so high that meaningful measurements are difficult.
# [4] = tested on: HIV-1; experiment: HIV-1 induced syncytia assay, IIIb infected H9 cells cocultured with Supt-1 target cells; type: cell-based; parameters: key to number of syncytia formed: 4 being multiple syncytia widely distributed; 0 indicating no syncytia observed; s=small; m=medium; L=large syncytia; settings: for number of syncytia formed: HIV-1, number and size of syncytia
# Description: as §3
# In a series of additional experiments, analysis of HIV-1 induced syncytia was performed by coculturing H9 cells infected with the IIIb isolate with uninfected Supt-1 (a human CD4+ T cell line) cells as targets. […]
# [5] = tested on: HTLV III -B (HIV-1 IIIB); experiment: Fusion inhibition (syncytia) assay, Sup-T1 cells with HTLV-III B infected H9 cells; type: cell-based; parameters: key: 4=Full; 0=None; S=Small; M=Medium; L=Large; settings: degree and size of syncytia
# Description: as §1, §2, §3, §4
# [6] = tested on: HIV-2; experiment: HIV-2 induced syncytia assay, ROD-2 infected cells cocultured with H9 target cells; type: cell-based; parameters: key to number of syncytia formed: 4 being multiple syncytia widely distributed; 0 indicating no syncytia observed; s=small; m=medium; L=large syncytia; settings: for number of syncytia formed: HIV-2, number and size of syncytia
# Description: as §3, with “text. […]” for “text.”
substance,measurement,setting,value
beta-cyclodextrin tetradecasulfate [Beta-CD-14S],morphology of viral particles produced,"[1]; 300 µM, 48 hour culture",typical of the lentivirus family
same,morphology of the viral particles produced,"[1]; infected H9 cells, 1 mM",mature morphology
same,Degree of Syncytia Formation,[2]; 0.15 micromolar β-CD-TDS,4 L
same,inhibition of syncytia formation,"[2]; 0.15 micromolar, text summary of Table 1 (both strains)",no inhibition of syncytia formation was observed
same,Degree of Syncytia Formation,[2]; 1.50 micromolar β-CD-TDS,3 M
same,Degree of Syncytia Formation,[2]; 15.0 micromolar β-CD-TDS,1S
same,Degree of Syncytia Formation,[2]; 150 micromolar β-CD-TDS,0
same,Degree of Syncytia Formation,[2]; 1500 micromolar β-CD-TDS,0
same,inhibition of syncytia,"[2]; between 1.5 micromolar and 1500 micromolar, text summary of Table 1 (both strains)",inhibition of syncytia was observed
same,Solubility 0°C,[3],42 g/100ml H₂O
same,number of syncytia formed,[4]; 1.3 mM,0
same,number of syncytia formed,[4]; 2.5 mM,0
same,number of syncytia formed,[4]; .01 mM,4 L
same,number of syncytia formed,[4]; .02 mM,4 L
same,number of syncytia formed,[4]; .04 mM,3 L
same,number of syncytia formed,[4]; .08 mM,2m
same,number of syncytia formed,[4]; .16 mM,1 s
same,number of syncytia formed,[4]; .32 mM,0
same,number of syncytia formed,[4]; .63 mM,0
same,inhibiting syncytia formation of HIV-1,[4]; result in words,extremely high antisyncytia activity
same,Degree of Syncytia Formation,[5]; 0.15 micromolar β-CD-TDS,4 L
same,Degree of Syncytia Formation,[5]; 1.50 micromolar β-CD-TDS,4 L
same,Degree of Syncytia Formation,[5]; 15.0 micromolar β-CD-TDS,4 L
same,Degree of Syncytia Formation,[5]; 150 micromolar β-CD-TDS,2 M
same,Degree of Syncytia Formation,[5]; 1500 micromolar β-CD-TDS,0
same,number of syncytia formed,[6]; 1.3 mM,0
same,number of syncytia formed,[6]; 2.5 mM,0
same,number of syncytia formed,[6]; .01 mM,4 L
same,number of syncytia formed,[6]; .02 mM,4 L
same,number of syncytia formed,[6]; .04 mM,4 L
same,number of syncytia formed,[6]; .08 mM,3 L
same,number of syncytia formed,[6]; .16 mM,2m
same,number of syncytia formed,[6]; .32 mM,1 s
same,number of syncytia formed,[6]; .63 mM,0
same,inhibition of syncytia formation mediated by ROD-2,[6]; result in words,inhibited syncytia formation

# — patent EP0423240B1, “MODULATION OF VIRUS-HOST CELL INTERACTIONS USING CYCLIC OLIGOSACCHARIDES” (THE TRUSTEES OF THE UNIVERSITY OF PENNSYLVANIA, priority 1988, dated 1990)
